Laboratory results taken from article PMC11173687, “Chemical Profile and Healthy Properties of Sicilian Diplotaxis harra subsp. crassifolia (Raf.) Maire” (Molecules, 2024).
Values belong to the molecule of their own block, whether it stands above or below them.

How the values were obtained:
[1] = β-carotene bleaching test (protection from lipid peroxidation)
Experimental: (§1) The β-carotene bleaching test was performed to investigate the ability of the extract to protect from lipid peroxidation. All test protocols were previously reported. Briefly, in the DPPH test, a solution of DPPH was mixed with extract at different concentrations (10-1000 μg/mL). After that, the mixture was incubated at room temperature for 30 min. The absorbance was read at 517 nm. In the ABTS test, a solution of ABTS radical cation was prepared and, after 12 h, was diluted with ethanol to reach an absorbance of 0.70 at 734 nm. The stabilized ABTS^+ solution was added to extracts at different concentrations (1-400 μg/mL), and the mixture was left to react at room temperature for 6 min. After that, the absorbance was read at 734 nm. Ascorbic acid was employed as a positive control in both the ABTS and DPPH assays. In the FRAP test, a mixture of tripyridyltriazine (TPTZ) solution, FeCl3, and acetate buffer was added to the sample at a concentration of 2.5 mg/mL. After 30 min of incubation at room temperature, the absorbance was measured at 595 nm. Butylated hydroxytoluene (BHT) was used as a positive control. The protection from lipid peroxidation was studied by using the β-carotene bleaching test. […] The mixture was left to react for 30 and 60 min at 45 °C, and the absorbance was read at 470 nm. Propyl gallate was used as a positive control.

[2] = Ferric Reducing Ability Power (FRAP) test; conditions: at 2.5 mg/mL
Experimental: as §1

[3] = DPPH radical scavenging test; conditions: 30 min, room temperature
Experimental: as §1

[4] = ABTS radical scavenging test; conditions: 6 min, room temperature
Experimental: as §1

β-Carotene Bleaching Test IC50 ([1]; 30 min): 1.04 ± 0.04 µg/mL
β-Carotene Bleaching Test IC50 ([1]; 60 min): 0.09 ± 0.00 µg/mL
Compound: CCCOC(=O)c1cc(O)c(O)c(O)c1 [Propyl gallate, propyl gallate]

Compound: Cc1cc(C(C)(C)C)c(O)c(C(C)(C)C)c1 [BHT, butylated hydroxytoluene]
FRAP Test [2]: 63.27 ± 4.35 μM Fe(II)/g

DPPH Test IC50 [3]: 5.0 ± 0.8 µg/mL
ABTS Test IC50 [4]: 1.7 ± 0.06 µg/mL
Compound: O=C1O[C@H]([C@@H](O)CO)C(O)=C1O [Ascorbic acid, ascorbic acid]
